Laboratory results reported in ChEMBL document CHEMBL1152215, “6-[2-(4-Aryl-1-piperazinyl)ethyl]-2H-1,4-benzoxazin-3(4H)-ones: dual-acting 5-HT1 receptor antagonists and serotonin reuptake inhibitors” (Bioorg Med Chem Lett, 2008).

What was measured:
[1] = target: T1, 5-hydroxytryptamine receptor 1D (Homo sapiens, UniProt P28221); assay: Intrinsic activity at human 5HT1D receptor expressed in CHO cells by [S35]GTPgammaS binding assay relative to serotonin; format: functional, cell-based
[2] = target: T2, 5-hydroxytryptamine receptor 1B (Homo sapiens, UniProt P28222); assay: Displacement of [3H]5HT from human 5HT1B receptor expressed in CHO cells; format: cell-based
T2 sequence (P28222 whole entry): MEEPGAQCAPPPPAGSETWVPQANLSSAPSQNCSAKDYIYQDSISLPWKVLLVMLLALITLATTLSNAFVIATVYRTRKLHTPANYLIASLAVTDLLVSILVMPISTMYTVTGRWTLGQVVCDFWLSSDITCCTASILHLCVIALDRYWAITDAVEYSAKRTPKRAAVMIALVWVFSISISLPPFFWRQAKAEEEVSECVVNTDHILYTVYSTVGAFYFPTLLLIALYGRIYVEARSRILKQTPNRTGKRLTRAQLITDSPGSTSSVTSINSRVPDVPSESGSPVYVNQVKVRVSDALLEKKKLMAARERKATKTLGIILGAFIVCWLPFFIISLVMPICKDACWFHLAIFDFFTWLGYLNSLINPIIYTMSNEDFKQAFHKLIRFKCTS

[3] = target: T3, 5-hydroxytryptamine receptor 1A (Homo sapiens, UniProt P08908); assay: Displacement of [3H]WAY-100635 from human 5HT1A receptor expressed in CHO cells; format: cell-based
T3 sequence (P08908 whole entry): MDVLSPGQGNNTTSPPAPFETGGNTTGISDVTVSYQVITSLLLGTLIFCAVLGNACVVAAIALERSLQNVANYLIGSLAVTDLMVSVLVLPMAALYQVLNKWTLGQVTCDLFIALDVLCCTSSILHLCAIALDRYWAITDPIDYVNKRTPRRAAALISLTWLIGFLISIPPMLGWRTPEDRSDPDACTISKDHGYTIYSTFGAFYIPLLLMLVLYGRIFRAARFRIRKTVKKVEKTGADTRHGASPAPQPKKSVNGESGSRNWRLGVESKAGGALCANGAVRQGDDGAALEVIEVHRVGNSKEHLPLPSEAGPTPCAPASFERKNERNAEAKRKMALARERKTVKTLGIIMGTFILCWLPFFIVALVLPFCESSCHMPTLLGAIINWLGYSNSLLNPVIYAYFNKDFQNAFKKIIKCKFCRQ

[4] = target: T4, 5-hydroxytryptamine receptor 1A (Homo sapiens) (UniProt P08908); assay: Intrinsic activity at human 5HT1A receptor expressed in CHO cells by [S35]GTPgammaS binding assay relative to serotonin; format: functional, cell-based
T4 sequence (whole entry): T3 sequence (P08908 whole entry)

[5] = target: T2, 5-hydroxytryptamine receptor 1B; assay: Intrinsic activity at human 5HT1B receptor expressed in CHO cells by [S35]GTPgammaS binding assay relative to serotonin; format: functional, cell-based
[6] = target: T1, 5-hydroxytryptamine receptor 1D; assay: Displacement of [3H]5HT from human 5HT1D receptor expressed in CHO cells; format: cell-based
[7] = target: Sodium-dependent serotonin transporter (Homo sapiens, UniProt P31645); assay: Displacement of [3H]citalopram from human SerT expressed pig LLCPK cells; format: cell-based
Sodium-dependent serotonin transporter, sequence (P31645 whole entry): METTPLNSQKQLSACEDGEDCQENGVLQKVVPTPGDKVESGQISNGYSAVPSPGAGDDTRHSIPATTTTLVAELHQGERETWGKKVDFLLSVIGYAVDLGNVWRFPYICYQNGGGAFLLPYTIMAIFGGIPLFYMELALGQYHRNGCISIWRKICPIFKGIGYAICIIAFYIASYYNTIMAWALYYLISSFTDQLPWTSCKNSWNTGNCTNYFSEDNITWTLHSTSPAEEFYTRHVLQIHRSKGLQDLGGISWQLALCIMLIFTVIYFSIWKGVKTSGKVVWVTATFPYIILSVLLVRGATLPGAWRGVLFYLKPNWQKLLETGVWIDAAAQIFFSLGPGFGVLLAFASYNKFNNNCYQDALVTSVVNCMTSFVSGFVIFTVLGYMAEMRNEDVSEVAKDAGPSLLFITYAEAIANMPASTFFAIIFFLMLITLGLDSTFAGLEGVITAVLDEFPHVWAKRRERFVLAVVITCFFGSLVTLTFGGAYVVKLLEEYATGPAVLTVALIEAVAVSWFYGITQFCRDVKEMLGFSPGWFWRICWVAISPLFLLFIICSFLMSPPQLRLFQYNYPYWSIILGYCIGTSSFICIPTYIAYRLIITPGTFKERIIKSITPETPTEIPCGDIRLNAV

[8] = Volume of distribution in rat; format: ADME, organism-based; conditions: in vivo, read-out: Vdss
[9] = test system: Liver microsomes; assay: Metabolic stability in rat liver microsomes assessed as intrinsic clearance; format: ADME, Microsome
[10] = Oral bioavailability in rat at 1 mg/kg; format: ADME, organism-based; conditions: in vivo
[11] = Blood Clearance in rat at 0.5 mg/kg, iv and 1 mg/kg, po; format: ADME, organism-based; conditions: whole blood
[12] = test system: Liver microsomes; assay: Metabolic stability in human liver microsomes assessed as intrinsic clearance; format: ADME, Microsome
[13] = Half life in rat; format: ADME, organism-based; conditions: in vivo
[14] = Ratio of drug level in brain to blood in rat; format: ADME, organism-based; conditions: brain / whole blood

T1 sequence (P28221 whole entry): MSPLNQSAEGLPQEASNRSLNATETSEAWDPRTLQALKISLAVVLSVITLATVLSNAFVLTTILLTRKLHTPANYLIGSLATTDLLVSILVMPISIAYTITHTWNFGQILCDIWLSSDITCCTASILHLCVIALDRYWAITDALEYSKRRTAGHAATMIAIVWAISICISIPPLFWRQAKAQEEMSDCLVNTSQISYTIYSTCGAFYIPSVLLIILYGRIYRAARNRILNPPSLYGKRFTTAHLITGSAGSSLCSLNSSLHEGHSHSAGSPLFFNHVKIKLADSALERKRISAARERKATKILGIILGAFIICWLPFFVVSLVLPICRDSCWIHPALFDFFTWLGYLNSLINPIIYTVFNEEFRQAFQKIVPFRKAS

SMILES | Intrinsic activity [1] | Ki [2] [nM] | Ki [3] [nM] | Intrinsic activity [4] | Intrinsic activity [5] | Ki [6] [nM] | Ki [7] [nM] | Vd [8] [L/kg] | CL [9] [mL/min/g] | bioavailability [10] [%] | clearance [11] [mL/min/kg] | CL [12] [mL/min/g] | half-life [13] [min] | Kp [14]
Cc1cc(N2CCN(CCc3ccc4c(c3)NC(=O)CO4)CC2)c2ccc(C)nc2c1 | 0.3 | 0.631 | 0.126 | 1.2 | 0.3 | 0.398 | 15.8 | – | – | – | – | – | – | –
Cc1ccc2c(N3CCN(CCc4ccc5c(c4)NC(=O)CO5)CC3)ccc(Cl)c2n1 | 0 | 0.501 | 3.98 | 0.7 | 0.3 | 0.2 | 1.58 | – | – | – | – | – | – | –
Cc1ccc2c(N3CCN(CCc4ccc5c(c4)NC(=O)CO5)CC3)cccc2n1 | – | – | – | 0.2 | 0.1 | – | – | 2 | 1.3 | 68 | 5 | < 0.5 | 306 | –
CC1(C)Cc2cccc(N3CCN(CCc4ccc5c(c4)NC(=O)CO5)CC3)c2O1 | 0.5 | 0.631 | 0.501 | 1.2 | 0.6 | 0.158 | 2.51 | – | – | – | – | – | – | –
Cc1ccc2c(N3CCN(CCc4ccc5c(c4)NC(=O)CO5)CC3C)cccc2n1 (centres undefined) | 0 | 2 | 0.794 | 0.2 | 0.1 | 0.316 | 10 | – | – | – | – | – | – | –
Cc1cc2c(N3CCN(CCc4ccc5c(c4)NC(=O)CO5)CC3)cccc2[nH]1 | 0.4 | 0.398 | 3.16 | 0.3 | 0.4 | 0.2 | 6.31 | – | – | – | – | – | – | –
CCN1C(=O)COc2ccc(CCN3CCN(c4cccc5nc(C)ccc45)CC3)cc21 | 0 | 0.794 | 0.501 | 0 | 0 | 0.398 | 79.4 | – | – | – | – | – | – | –
Cc1ccc2c(N3CCN(CCc4ccc5c(c4)NC(=O)CO5)CC3)cc(F)cc2n1 | 0 | 2.51 | 2.51 | 0 | 0 | 0.2 | 0.794 | – | – | – | – | – | – | –
Cc1ccc2c(N3C[C@H]4C[C@@H]3CN4CCc3ccc4c(c3)NC(=O)CO4)cccc2n1 | 0 | 0.794 | 126 | 0.8 | 0.2 | 25.1 | 3.98 | – | – | – | – | – | – | –
Cc1ncc2c(N3CCN(CCc4ccc5c(c4)NC(=O)CO5)CC3)cccc2n1 | 0 | 0.631 | 0.398 | 0.6 | 0.2 | 0.316 | 2 | 1.1 | – | 67 | 4 | – | 168 | 0.3
O=C1COc2ccc(CCN3CCN(c4nccc5ccccc45)CC3)cc2N1 | 0.4 | 0.794 | 100 | 1 | 0.5 | 0.251 | 0.794 | – | – | – | – | – | – | –
O=C1COc2ccc(CCN3CCN(c4cccc5nc(-c6ccccc6)ccc45)CC3)cc2N1 | 0 | 0.316 | 0.631 | 0.4 | 0.2 | 12.6 | 0.158 | – | – | – | – | – | – | –
O=C1COc2ccc(CCN3CCN(c4cccc5cccnc45)CC3)cc2N1 | 0.7 | 31.6 | 1.58 | 0.8 | 0.7 | 0.251 | 10 | – | – | – | – | – | – | –
Cc1ccc2c(N3CCN(CCc4ccc5c(c4)NC(=O)CO5)[C@H](C)C3)cccc2n1 | 0 | 7.94 | 1.58 | 0 | 0 | 0.501 | 0.794 | – | – | – | – | – | – | –
Cc1ccc2c(N3CCN(CCc4ccc5c(c4F)NC(=O)CO5)CC3)cccc2n1 | 0 | 0.398 | 0.251 | 0.3 | 0.2 | 0.398 | 5.01 | – | – | – | – | – | – | –
Cc1ccc2c(N3CCN(CCc4ccc5c(c4)NC(=O)CO5)[C@@H](C)C3)cccc2n1 | 0 | 1.26 | 3.16 | 0 | 0 | 1.58 | 0.398 | – | – | – | – | – | – | –
Cc1ccc2c(N3CCN(CCc4cc(F)c5c(c4)NC(=O)CO5)CC3)cccc2n1 | 0 | 1 | 1.26 | 0 | 0.3 | 0.2 | 1.26 | – | – | – | – | – | – | –
Cc1ccc2c(N3CCN(CCc4ccc5c(c4)N(C)C(=O)CO5)CC3)cccc2n1 | – | – | – | 0.3 | 0.2 | – | – | 2.7 | 0.8 | 59 | 8 | 1.1 | 264 | –
Cc1ccc2c(N3CCN(CCc4cc5c(cc4F)OCC(=O)N5)CC3)cccc2n1 | 0 | 1.58 | 0.251 | 0.2 | 0.1 | 0.251 | 0.794 | – | – | – | – | – | – | –
Cc1ccc2c(N3CCN(CCc4ccc5c(c4)NC(=O)CO5)CC3)cc(Cl)cc2n1 | 0 | 0.501 | 0.316 | 0.4 | 0 | 0.158 | 0.794 | – | – | – | – | – | – | –
Cc1ccc2c(N3CCN(CCc4ccc5c(c4)NC(=O)CO5)CC3)ccc(F)c2n1 | 0 | 126 | 0.251 | 0.2 | 0 | 0.316 | 3.98 | – | – | – | – | – | – | –
